Experimental data as given in PubChem BioAssay (NCI).
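48-hour exposure; five concentrations; linearly interpolated endpoints. Definition used: TGI = concentration required for complete inhibition of growth.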

Assays:
Assay in all cases: NCI tumour cell line growth inhibition, 48 h
[1] = system: EKVX NSCLC
[2] = system: SK-MEL-28 melanoma
[3] = system: SF-539 CNS
[4] = system: UACC-62 melanoma
[5] = system: SK-MEL-2 melanoma
[6] = system: HOP-62 NSCLC
[7] = system: MOLT-4 leukemia
[8] = system: CCRF-CEM leukemia
[9] = system: HCT-116 colon
[10] = system: HOP-92 NSCLC
[11] = system: UO-31 renal
[12] = system: ACHN renal
[13] = system: SNB-75 CNS
[14] = system: SNB-78 CNS
[15] = system: NCI-H522 lung
[16] = system: LXFL 529 NSCLC
[17] = system: RPMI-8226 leukemia
[18] = system: DMS 114 small cell lung
[19] = system: KM12 colon
[20] = system: COLO 205 colon
[21] = system: DMS 273 small cell lung
[22] = system: A498 renal
[23] = system: NCI-H23 lung
[24] = system: SN12C renal
[25] = system: HT29 colon
[26] = system: M19-MEL melanoma
[27] = system: U251 CNS
[28] = system: SK-MEL-5 melanoma
[29] = system: M14 melanoma
[30] = system: DLD-1 colon
[31] = system: LOX IMVI melanoma
[32] = system: TK-10 renal
[33] = system: OVCAR-4 ovarian
[34] = system: SK-OV-3 ovarian
[35] = system: OVCAR-8 ovarian
[36] = system: HCT-15 colon
[37] = system: A549 NSCLC
[38] = system: SF-295 CNS
[39] = system: 786-0 renal
[40] = system: SF-268 CNS
[41] = system: UACC-257 melanoma
[42] = system: MALME-3M melanoma
[43] = system: SW-620 colon
[44] = system: OVCAR-5 ovarian
[45] = system: HL-60(TB) leukemia
[46] = system: SNB-19 CNS
[47] = system: XF 498 CNS
[48] = system: IGROV1 ovarian
[49] = system: CAKI-1 renal
[50] = system: RXF 393 renal
[51] = system: OVCAR-3 ovarian
[52] = system: HCC-2998 colon
[53] = system: K-562 leukemia
[54] = system: NCI-H460 lung
[55] = system: NCI-H226 lung
[56] = system: HOP-18 NSCLC
[57] = system: KM20L2 colon
[58] = system: SR leukemia
[59] = system: BT-549 breast
[60] = system: MCF7 breast
[61] = system: NCI/ADR-RES ovarian
[62] = system: MDA-MB-231 breast
[63] = system: PC-3 prostate
[64] = system: T-47D breast
[65] = system: DU-145 prostate
[66] = system: MDA-N
[67] = system: MDA-MB-435
[68] = system: HS 578T breast

In the case of `CC1(C2CCC3(C)C(C2)C3Sc2ccccc2)OCCO1` (centres undefined), the TGI [1] is reported as 66.2 µM, the TGI [2] is reported as 63.6 µM and the TGI [3] is reported as 67.3 µM. For the same compound, the TGI [4] was 43.1 µM, the TGI [5] was 34.3 µM and the TGI [6] was 45.8 µM. For the same compound, the TGI [7] was 38.4 µM, the TGI [8] was 40.3 µM and the TGI [9] was 34 µM. It also gave a TGI [10] of 56 µM, a TGI [11] of 31.4 µM and a TGI [12] of 46.9 µM. The TGI [13] was > 100 µM, the TGI [14] was > 100 µM and the TGI [15] was 40.9 µM. For the same compound, the TGI [16] was > 100 µM, the TGI [17] was 32.7 µM and the TGI [18] was 47.1 µM. For the same compound, the TGI [19] was 79.2 µM, the TGI [20] was 35.8 µM and the TGI [21] was 60 µM. The TGI [22] was 36.4 µM, the TGI [23] was 66.3 µM and the TGI [24] was 46.8 µM. For the same compound, the TGI [25] was 41.4 µM, the TGI [26] was 40.6 µM and the TGI [27] was 42.8 µM. For the same compound, the TGI [28] was 34 µM, the TGI [29] was > 100 µM and the TGI [30] was 92.2 µM. For the same compound, the TGI [31] was 49.6 µM, the TGI [32] was > 100 µM and the TGI [33] was 81.7 µM. For the same compound, the TGI [34] was 88.6 µM, the TGI [35] was > 100 µM and the TGI [36] was > 100 µM. For the same compound, the TGI [37] was 68 µM, the TGI [38] was 46.5 µM and the TGI [39] was 33.3 µM. The TGI [40] was > 100 µM, the TGI [41] was 41.5 µM and the TGI [42] was 41.8 µM. It also gave a TGI [43] of 50.1 µM, a TGI [44] of 49.9 µM and a TGI [45] of 29.7 µM. The TGI [46] was 82.6 µM, the TGI [47] was 40.7 µM and the TGI [48] was > 100 µM. It also gave a TGI [49] of 51.4 µM, a TGI [50] of 32.4 µM and a TGI [51] of 30 µM. It also gave a TGI [52] of 39.2 µM, a TGI [53] of 43.7 µM and a TGI [54] of 46.5 µM.

For `CC1=C(C(=O)NCc2ccccc2)C(c2ccco2)C(C(=O)NCc2ccccc2)=C(C)N1`, the TGI [1] was > 100 µM, the TGI [2] was > 100 µM and the TGI [3] was > 100 µM. For the same compound, the TGI [4] was 50.6 µM, the TGI [5] was 92.6 µM and the TGI [6] was > 100 µM. The TGI [7] was > 100 µM, the TGI [8] was > 100 µM and the TGI [9] was > 100 µM. The TGI [10] was > 100 µM, the TGI [11] was > 100 µM and the TGI [12] was > 100 µM. The TGI [13] was > 100 µM, the TGI [14] was > 100 µM and the TGI [15] was > 100 µM. The TGI [16] was > 100 µM, the TGI [17] was > 100 µM and the TGI [18] was > 100 µM. The TGI [19] was > 100 µM, the TGI [20] was > 100 µM and the TGI [55] was > 100 µM. The TGI [21] was > 100 µM, the TGI [22] was > 100 µM and the TGI [23] was > 100 µM. The TGI [24] was > 100 µM, the TGI [25] was > 100 µM and the TGI [27] was > 100 µM. For the same compound, the TGI [28] was > 100 µM, the TGI [29] was > 100 µM and the TGI [30] was > 100 µM. The TGI [31] was > 100 µM, the TGI [32] was > 100 µM and the TGI [33] was > 100 µM. The TGI [34] was > 100 µM, the TGI [35] was > 100 µM and the TGI [36] was > 100 µM. For the same compound, the TGI [37] was > 100 µM, the TGI [38] was > 100 µM and the TGI [56] was > 100 µM. The TGI [40] was > 100 µM, the TGI [41] was > 100 µM and the TGI [42] was > 100 µM. For the same compound, the TGI [57] was > 100 µM, the TGI [43] was > 100 µM and the TGI [44] was > 100 µM. For the same compound, the TGI [45] was > 100 µM, the TGI [46] was > 100 µM and the TGI [47] was > 100 µM. For the same compound, the TGI [48] was > 100 µM, the TGI [49] was > 100 µM and the TGI [50] was > 100 µM. For the same compound, the TGI [51] was > 100 µM, the TGI [52] was > 100 µM and the TGI [53] was > 100 µM. The TGI [58] was > 100 µM and the TGI [54] was > 100 µM.

With `Nc1ccn(CC(O)c2cc3ccccc3[nH]2)c(=O)n1` (centres undefined) the TGI [1] was > 100 µM, the TGI [2] was > 100 µM and the TGI [3] was > 100 µM. The TGI [59] was > 100 µM, the TGI [4] was > 100 µM and the TGI [5] was > 100 µM. The TGI [6] was > 100 µM, the TGI [7] was > 100 µM and the TGI [8] was > 100 µM. For the same compound, the TGI [9] was > 100 µM, the TGI [10] was > 100 µM and the TGI [11] was > 100 µM. For the same compound, the TGI [12] was > 100 µM, the TGI [13] was > 100 µM and the TGI [60] was > 100 µM. The TGI [15] was > 100 µM, the TGI [17] was > 100 µM and the TGI [19] was > 100 µM. For the same compound, the TGI [20] was > 100 µM, the TGI [55] was > 100 µM and the TGI [22] was > 100 µM. For the same compound, the TGI [23] was > 100 µM, the TGI [24] was > 100 µM and the TGI [25] was > 100 µM. The TGI [27] was > 100 µM, the TGI [28] was > 100 µM and the TGI [61] was > 100 µM. For the same compound, the TGI [29] was > 100 µM, the TGI [62] was > 100 µM and the TGI [31] was > 100 µM. For the same compound, the TGI [63] was > 100 µM, the TGI [32] was > 100 µM and the TGI [64] was > 100 µM. The TGI [33] was > 100 µM, the TGI [34] was > 100 µM and the TGI [65] was > 100 µM. The TGI [35] was > 100 µM, the TGI [36] was > 100 µM and the TGI [37] was > 100 µM. The TGI [66] was > 100 µM, the TGI [38] was > 100 µM and the TGI [39] was > 100 µM. For the same compound, the TGI [40] was > 100 µM, the TGI [41] was > 100 µM and the TGI [42] was > 100 µM. For the same compound, the TGI [43] was > 100 µM, the TGI [44] was > 100 µM and the TGI [45] was > 100 µM. The TGI [46] was > 100 µM, the TGI [48] was > 100 µM and the TGI [67] was > 100 µM. For the same compound, the TGI [49] was > 100 µM, the TGI [50] was > 100 µM and the TGI [68] was > 100 µM. For the same compound, the TGI [51] was > 100 µM, the TGI [52] was > 100 µM and the TGI [53] was > 100 µM. For the same compound, the TGI [58] was > 100 µM and the TGI [54] was > 100 µM.
